Here are results for 7 compounds from ChEMBL document CHEMBL3430912, “GSK Tres Cantos Anti-Kinetoplastid Screening (TCAKS) Data”.

The subject of data set [1] is Leishmania donovani. Put plainly: GSK_TCAKS: pIC50 Leishmania donovani viability assay using fluorescence intensity. Assay plates (1536-well) were prepared by adding 30nL per well of compound. For single shot assay, the final compound concentration was 5uM. […] Briefly, eGFP LdBOB axenic amastigotes were harvested, fixed and counted in a CASY cell counter (Roche-Applied Science). A final concentration of 1.5 * 10^5 cells per well were prepared in amastigote media containing 500 U/mL penicillin/streptomycin (Invitrogen) and 6uL was dispensed to each experimental well using a Multidrop Combi dispenser (Thermo Scientific). 6uL of assay media was dispensed to control columns used as reference for 100% compound response. Following incubation for 72 h at 37C, 5% CO2, 2 uL of resazurin was added to each well at a final concentration of 0.5 mM in phosphate buffered saline (PBS) with IGEPAL (Sigma-Aldrich), 0.05% (v/v). Type of data set: functional, organism-based.

The nature of data set [2]: GSK_TCAKS: pIC50 HepG2 human cell line viability assay using luminiscence. […] Seeding density was checked to ensure that new mono-layers were not more than 50% confluent at the time of harvesting. Cell suspension was added to 500 mL of the same medium at a final density of 1.2 * 10^5 cells/mL. This cell suspension was dispensed (25 uL, 3000 cells per well) into 384-well clear-bottom plates using a Multidrop Combi dispenser. Prior to addition of the cell suspension, the screening compounds (250 nL) were pre-dispensed into the plates with an Echo liquid handler. Plates were incubated for 48 h at 37C, 5% CO2. After incubation, plates equilibrated at room temperature for 30 min before proceeding to develop the luminescent signal. The signal developer, CellTiter-Glo Reagent, was allowed to equilibrate at room temperature for 30 min and added to the plates (25uL per well) using a Multidrop Combi dispenser. Plates were left for 10 min at room temperature for stabilization and then read using a ViewLux. Type of data set: toxicity, cell-based. On the technique in general: In ATP-based viability assays light output follows the ATP content of the culture.

The subject of data set [3] is Trypanosoma cruzi. Nature of the data set: (§1) GSK_TCAKS: pIC50 H2C9 Imaging: H9c2 Host Cardiomyocytes. […] Cells were then washed once with PBS before infection. T. cruzi trypomastigotes, collected at days 5 to 8 after infection from LLC-MK2 parasite infected cultures, were allowed to swim out for 4h at 37C from a centrifuged pellet (2,500 rpm/10 min/room temperature). Trypomastigotes were then collected and counted in a CASY Cell Counter. Trypomastigotes, in supplemented DMEM, were added to H9c2 cultures in a multiplicity of infection of 1 and incubated for 18 h. Cells were washed once with PBS before incubation of the infected H9c2 monolayer with trypsin (Life-Technologies) to detach cells from the flask. Cells were counted in a CASY Cell Counter using a 150 um capillary and their density set at 5 * 10^4 cells per mL in supplemented assay DMEM. Infected H9c2 were dispensed into 384-well poly-lysine coated assay plates at 50uL per well using a Multidrop Combi dispenser. After seeding them, the plates were incubated at 37C, 5% CO2 for 72h. Cultures were then fixed and stained by addition of 50 uL of a solution containing 8% formaldehyde and 4 uM DRAQ5 DNA dye (BioStatus, UK) per well. […] Five images were collected per well for reliable statistical analysis. Automated image analysis was performed with a script developed on Acapella High Content Imaging and Analysis Software (PerkinElmer). Output: Number of H9c2 Host Cardiomyocytes nuclei to determine drug-related cytotoxicity. The format is functional, organism-based, Rattus norvegicus. As to conditions: H9c2, 4 h.

The test system of data set [4] is Trypanosoma brucei brucei. Nature of the data set: GSK_TCAKS: pIC50 Trypanosoma brucei viability assay using fluorescence intensity. Assay plates (1536-well) were prepared by dispensing 25nL of compound solution per well using an Echo acoustic dispenser (Labcyte). The format is functional, organism-based. As to conditions: Lister 427, 2 h.
The subject of data set [5] is Trypanosoma cruzi. The description is as §1, with “Trypanosoma cruzi” for “H2C9”, “Amastigotes/Cell.” for “H9c2 Host Cardiomyocytes.”, “number” for “Number”, “amastigotes per cell as infection level measurement.” for “H9c2 Host Cardiomyocytes nuclei to determine drug-related cytotoxicity.”. As to conditions: H9c2, 4 h. The format is functional, organism-based, Rattus norvegicus.

Data set [6] addresses Sterol 14-alpha demethylase (Trypanosoma cruzi (strain CL Brener), UniProt Q7Z1V1). Nature of the data set: GSK_TCAKS: pIC50 CYP51 from Trypanosoma cruzi. The format is functional.
For data set [7], the system named is Trypanosoma cruzi. The data set is described as §1, with “Trypanosoma cruzi” for “H2C9”, “Infected Cells.” for “H9c2 Host Cardiomyocytes.”, “percentage” for “Number”, “infected cells per well as a second infection marker.” for “H9c2 Host Cardiomyocytes nuclei to determine drug-related cytotoxicity.”. Type of data set: functional, organism-based, Rattus norvegicus. As to conditions: H9c2, 4 h.

The test system of data set [8] is Leishmania donovani. Nature of the data set: GSK_TCAKS: pIC50 Leishmania donovani Imaging: THP-1 Host Macrophages. Assay plates (384-well) were prepared by adding 250nL of compound to each well. For single shot assay, the final compound concentration was 5 uM. […] Automated image analysis was performed with a script developed on Acapella High Content Imaging and Analysis Software (PerkinElmer). Output: THP-1 cell count were reported for each well. The format is functional, organism-based, Homo sapiens.

Data set [9] deals with Trypanosoma cruzi. Nature of the data set: GSK_TCAKS: pIC50 Trypanosoma cruzi viability assay using beta-GAL activity. This assay was run at single shot at 5uM compound concentration per well. The biological reagents consisted of NIH-3T3 host cells and trypomastigotes parasitic cells; both cell types were set to a 3.3 * 10^5 cells/mL dilution in assay DMEM by means of a CASY cell counter device using a 60um capillary. 6 uL of the mixture were dispensed per well (about 1 * 10^3 host-cells and 1 * 10^3 parasites) with a Multidrop Combi dispenser. […] In all wells, the percentage of DMSO never exceeded 0.5%. Plates incubated for four days at 37C, 5% CO2. The substrate used for the assay fluorescence intensity (FLINT) readout was resorufin-beta-D-galactopiranoside (Sigma-Aldrich) at 5uM per well. It was diluted in PBS supplemented with the soft detergent Igepal (Fluka). The format is functional, organism-based, Mus musculus. As to conditions: Tulahuen, NIH3T3.

The test system of data set [10] is Leishmania donovani. Put plainly: GSK_TCAKS: pIC50 Leishmania donovani Imaging: Infected Macrophages. Assay plates (384-well) were prepared by adding 250nL of compound to each well. For single shot assay, the final compound concentration was 5 uM. […] Automated image analysis was performed with a script developed on Acapella High Content Imaging and Analysis Software (PerkinElmer). Output: Percent of infected macrophage cells were reported for each well. The format is functional, organism-based, Homo sapiens. As to conditions: THP-1.

Data set [11] has as its system Leishmania donovani. Put plainly: GSK_TCAKS: pIC50 Leishmania donovani Imaging: Amastigotes/Macrophages. Assay plates (384-well) were prepared by adding 250nL of compound to each well. For single shot assay, the final compound concentration was 5 uM. […] Automated image analysis was performed with a script developed on Acapella High Content Imaging and Analysis Software (PerkinElmer). Output: Average number of amastigotes per macrophage cell were reported for each well. Type of data set: functional, organism-based, Homo sapiens. As to conditions: THP-1.

For data set [12], the system named is Trypanosoma brucei brucei. Nature of the data set: GSK_TCAKS: pIC50 Trypanosoma brucei viability assay using luminiscence. Assay plates (1536-well) were prepared. T. brucei cultures were harvested and counted in a CASY cell counter. A parasite suspension was prepared at a final concentration of 5 * 10^4 cells/mL in complete HMI9 medium and 6uL was dispensed to all wells containing compounds using a Multidrop Combi dispenser. 6uL of HMI9 media with 0.4% DMSO were dispensed to control columns. Plates were incubated for 24 h at 37C, 5% CO2 then tempered for 10 min at room temperature. ATP content was quantified by adding 4 uL of CellTiter-Glo Reagent (Promega) according to the manufacturer's instructions. Luminescence was measured using a ViewLux. The format is functional, organism-based. As to conditions: Lister 427, CASY.

Each structure is given as a SMILES string. Some results are limits rather than exact numbers.

Chain of Sterol 14-alpha demethylase (Q7Z1V1 whole entry): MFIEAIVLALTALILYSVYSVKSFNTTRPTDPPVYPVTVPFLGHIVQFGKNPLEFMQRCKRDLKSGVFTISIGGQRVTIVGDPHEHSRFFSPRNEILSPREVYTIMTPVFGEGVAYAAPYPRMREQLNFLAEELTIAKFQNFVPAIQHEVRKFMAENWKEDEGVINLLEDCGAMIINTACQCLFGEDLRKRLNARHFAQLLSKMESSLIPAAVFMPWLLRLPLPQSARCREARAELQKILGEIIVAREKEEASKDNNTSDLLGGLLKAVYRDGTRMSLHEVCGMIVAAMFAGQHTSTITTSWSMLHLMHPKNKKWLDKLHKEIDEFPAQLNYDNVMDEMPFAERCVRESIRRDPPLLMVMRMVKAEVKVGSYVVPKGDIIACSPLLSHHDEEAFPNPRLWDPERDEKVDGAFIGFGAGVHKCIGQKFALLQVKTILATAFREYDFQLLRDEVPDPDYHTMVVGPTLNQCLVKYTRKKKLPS

Consider `COc1ccc(S(=O)(=O)Nc2ccc(C(=O)Nc3nc(-c4ccccn4)cs3)cc2)cc1`, for which the IC50 (usually the point on the concentration scale where inhibition reaches its midpoint) with Leishmania donovani [1] was 1 µM; in the data set on Trypanosoma cruzi [3], 6.31 µM; in data set [4] it was 0.794 µM; in the data set with Trypanosoma cruzi [5], 0.631 µM; in data set [6] it was 0.398 µM; with Trypanosoma cruzi [7], 0.794 µM. In addition, the IC50 was 10 µM in the data set on Leishmania donovani [8]; 0.891 µM in the data set on Trypanosoma cruzi [9]; 0.398 µM with Leishmania donovani [10]; 0.158 µM in the data set with Leishmania donovani [11]; 0.631 µM in data set [12]. In [2], this compound gave an IC50 at 48 h of 63.1 µM.

As for `COCCn1c(-c2ccc3c(c2)OCO3)cnc1NCc1ccccc1OC`, the IC50 was 12.6 µM in the data set with Leishmania donovani [1]; 39.8 µM with Trypanosoma cruzi [3]; 20 µM in data set [4]; 7.94 µM in the data set on Trypanosoma cruzi [5]; 5.01 µM in data set [6]; 20 µM in the data set with Trypanosoma cruzi [7]. Besides, the IC50 in the data set with Leishmania donovani [8] was 39.8 µM; with Trypanosoma cruzi [9] it was 7.94 µM; with Leishmania donovani [10], 10 µM; with Leishmania donovani [11], 5.01 µM; in data set [12], 25.1 µM. Besides, 39.8 µM corresponded to half-maximal inhibition in data set [2] (IC50 at 48 h).

As to `Cc1nc(-c2ccncc2)ncc1C(C)NC(=O)c1ccc(Cl)s1` (centres undefined), the IC50 is more than 50.1 µM with Leishmania donovani [1]; more than 50.1 µM with Trypanosoma cruzi [3]; 1 µM in [4]; 20 µM with Trypanosoma cruzi [5]; 0.794 µM in [6]; 31.6 µM in the data set on Trypanosoma cruzi [7]. Besides, the IC50 was more than 50.1 µM in the data set with Leishmania donovani [8]; 25.1 µM in the data set on Trypanosoma cruzi [9]; more than 50.1 µM in the data set with Leishmania donovani [10]; more than 50.1 µM in the data set with Leishmania donovani [11]; 1 µM in data set [12]. The compound also had an IC50 at 48 h in data set [2] of more than 100 µM.

Consider `CC(C)(C)c1cc(NC2CC2)nc(-c2ccccn2)n1`, for which the IC50 is 1.58 µM with Leishmania donovani [1]; 0.316 µM with Trypanosoma cruzi [3]; 7.94 µM in [4]; 1.26 µM in the data set with Trypanosoma cruzi [5]; more than 100 µM in data set [6]; 1.58 µM in the data set on Trypanosoma cruzi [7]. Moreover, the IC50 in the data set with Leishmania donovani [8] is 25.1 µM; in the data set on Trypanosoma cruzi [9], 1.26 µM; in the data set with Leishmania donovani [10], 2.51 µM; with Leishmania donovani [11], 1.58 µM; in [12], 2.51 µM. In data set [2], this compound had an IC50 at 48 h of more than 100 µM.

In the case of `O=C(CN1CCN(S(=O)(=O)c2cccc([N+](=O)[O-])c2)CC1)Nc1ccc(Oc2ccccc2)cc1`, the IC50 is 3.98 µM in the data set with Leishmania donovani [1]; more than 50.1 µM with Trypanosoma cruzi [3]; 20 µM in data set [4]; 1.26 µM in the data set with Trypanosoma cruzi [5]; 2.51 µM in [6]; 2.51 µM in the data set with Trypanosoma cruzi [7]. Besides, the IC50 is more than 50.1 µM in the data set on Leishmania donovani [8]; 2.51 µM in the data set on Trypanosoma cruzi [9]; 7.94 µM with Leishmania donovani [10]; 2 µM in the data set with Leishmania donovani [11]; 15.8 µM in data set [12]. Moreover, the IC50 at 48 h in data set [2] was more than 100 µM.

For `Cc1cccc(Nc2nc(-c3ccccn3)cs2)n1`, the IC50 in the data set with Leishmania donovani [1] is 3.98 µM; in the data set with Trypanosoma cruzi [3], 0.631 µM; in data set [4], 1 µM; with Trypanosoma cruzi [5], 0.794 µM; in [6], 20 µM; in the data set with Trypanosoma cruzi [7] it was 1 µM. Also, the IC50 is more than 50.1 µM with Leishmania donovani [8]; 0.631 µM with Trypanosoma cruzi [9]; 3.16 µM in the data set with Leishmania donovani [10]; 2 µM with Leishmania donovani [11]; 0.501 µM in data set [12]. The IC50 at 48 h in data set [2] is 39.8 µM.

With `O=C1COC(c2ccccc2)(c2ccccc2)CN1C1CCN(Cc2ccc(-n3ccnc3)cc2)CC1`, the IC50 is 31.6 µM with Leishmania donovani [1]; 31.6 µM in the data set on Trypanosoma cruzi [3]; 0.794 µM in data set [4]; 0.501 µM in the data set on Trypanosoma cruzi [5]; 0.0794 µM in [6]; 2 µM in the data set with Trypanosoma cruzi [7]. The IC50 in the data set with Leishmania donovani [8] is 15.8 µM; in the data set on Trypanosoma cruzi [9], 1.58 µM; in the data set on Leishmania donovani [10] it was 15.8 µM; in the data set with Leishmania donovani [11] it was 12.6 µM; in data set [12], 1 µM. Moreover, in data set [2], the IC50 at 48 h is 50.1 µM.
